{"source": "paper PMC5218480", "about": "(PLoS ONE, 2017)", "system": "MV-4-11 cells", "experiment": "Gene expression microarray analysis (Affymetrix PrimeView) and GSEA", "assay_type": "cell-based, human", "parameters": "RFU PODN (11730768_x_at) / Fold change /veh PODN (11730768_x_at) / RFU LINC00158 (11744669_a_at) / Fold change /veh LINC00158 (11744669_a_at) / RFU DUSP10 (11751237_a_at) / Fold change /veh DUSP10 (11751237_a_at) / RFU ID3 (11757404_x_at) / Fold change /veh ID3 (11757404_x_at) / RFU PLEKHG5 (11737974_s_at) / Fold change /veh PLEKHG5 (11737974_s_at) / RFU LRRC4B (11730491_at) / Fold change /veh LRRC4B (11730491_at) / RFU GIMAP4 (11747438_a_at) / Fold change /veh GIMAP4 (11747438_a_at) / RFU KRT8 (11758183_x_at) / Fold change /veh KRT8 (11758183_x_at) / RFU CNN1 (11734310_a_at) / Fold change /veh CNN1 (11734310_a_at) / RFU VPS37D (11726825_at) / Fold change /veh VPS37D (11726825_at) / RFU C10orf10 (11716522_x_at) / Fold change /veh C10orf10 (11716522_x_at) / RFU KIR2DL2 /// KIR2DL4 /// KIR2DL5A /// KIR2DL5B /// KIR2DS1 /// KIR2DS2 /// KIR2DS3 /// KIR2DS4 /// KIR3DL3 /// KIR3DL3 /// KIR3DS1 (11738374_at) / Fold change /veh KIR2DL2 /// KIR2DL4 /// KIR2DL5A /// KIR2DL5B /// KIR2DS1 /// KIR2DS2 /// KIR2DS3 /// KIR2DS4 /// KIR3DL3 /// KIR3DL3 /// KIR3DS1 (11738374_at) / RFU C1QL1 (11718748_at) / Fold change /veh C1QL1 (11718748_at) / RFU TMPRSS4 (11747572_a_at) / Fold change /veh TMPRSS4 (11747572_a_at) / RFU HAMP (11756126_x_at) / Fold change /veh HAMP (11756126_x_at) / RFU RNFT2 (11725882_a_at) / Fold change /veh RNFT2 (11725882_a_at) / RFU NR4A2 (11747474_a_at) / Fold change /veh NR4A2 (11747474_a_at) / RFU ABCC12 (11746883_a_at) / Fold change /veh ABCC12 (11746883_a_at) / RFU TMEM136 (11760407_x_at) / Fold change /veh TMEM136 (11760407_x_at) / RFU CLDN22 /// WWC2 (11732394_at) / Fold change /veh CLDN22 /// WWC2 (11732394_at) / RFU HLA-DPB1 (11760878_x_at) / Fold change /veh HLA-DPB1 (11760878_x_at) / RFU SPINT1 (11716480_a_at) / Fold change /veh SPINT1 (11716480_a_at) / RFU GAP43 (11754022_s_at) / Fold change /veh GAP43 (11754022_s_at) / RFU A4GNT (11735810_at) / Fold change /veh A4GNT (11735810_at) / RFU PRB3 (11715151_x_at) / Fold change /veh PRB3 (11715151_x_at) / RFU TUBB4B (11761932_at) / Fold change /veh TUBB4B (11761932_at) / RFU CAPN14 (11732068_a_at) / Fold change /veh CAPN14 (11732068_a_at) / RFU TMCC2 (11721928_a_at) / Fold change /veh TMCC2 (11721928_a_at) / RFU IRGQ (11745062_a_at) / Fold change /veh IRGQ (11745062_a_at) / RFU FAM174B (11720279_a_at) / Fold change /veh FAM174B (11720279_a_at) / RFU TMPRSS4 (11748680_a_at) / Fold change /veh TMPRSS4 (11748680_a_at) / RFU FAM212B (11763350_a_at) / Fold change /veh FAM212B (11763350_a_at) / RFU PLEKHG5 (11743358_a_at) / Fold change /veh PLEKHG5 (11743358_a_at) / RFU ZSCAN30 (11745921_a_at) / Fold change /veh ZSCAN30 (11745921_a_at) / RFU CMKLR1 (11741424_a_at) / Fold change /veh CMKLR1 (11741424_a_at) / RFU LOC101060620 /// MAPK8IP1 (11723275_at) / Fold change /veh LOC101060620 /// MAPK8IP1 (11723275_at) / RFU SPTSSB (11747773_x_at) / Fold change /veh SPTSSB (11747773_x_at) / RFU PRSS12 (11739890_at) / Fold change /veh PRSS12 (11739890_at) / RFU BIN1 (11741810_x_at) / Fold change /veh BIN1 (11741810_x_at) / RFU WNT11 (11732464_a_at) / Fold change /veh WNT11 (11732464_a_at) / RFU C10orf10 (11716521_a_at) / Fold change /veh C10orf10 (11716521_a_at) / RFU C5orf56 (11738089_at) / Fold change /veh C5orf56 (11738089_at) / RFU CYB561 (11721691_x_at) / Fold change /veh CYB561 (11721691_x_at) / RFU ANKRD19P (11752326_a_at) / Fold change /veh ANKRD19P (11752326_a_at) / RFU OR2T12 /// OR2T33 /// OR2T8 (11738714_s_at) / Fold change /veh OR2T12 /// OR2T33 /// OR2T8 (11738714_s_at) / RFU VCAN (11748164_a_at) / Fold change /veh VCAN (11748164_a_at) / RFU JSRP1 (11732532_at) / Fold change /veh JSRP1 (11732532_at) / RFU KRTAP10-11 (11738290_x_at) / Fold change /veh KRTAP10-11 (11738290_x_at) / RFU MYO3A (11730013_a_at) / Fold change /veh MYO3A (11730013_a_at) / RFU EBF3 (11725865_a_at) / Fold change /veh EBF3 (11725865_a_at) / RFU CAMK2N1 (11719241_x_at) / Fold change /veh CAMK2N1 (11719241_x_at) / RFU C5orf56 (11738088_a_at) / Fold change /veh C5orf56 (11738088_a_at) / RFU OLFML3 (11715873_a_at) / Fold change /veh OLFML3 (11715873_a_at) / RFU LOC100653217 /// NTM (11731650_a_at) / Fold change /veh LOC100653217 /// NTM (11731650_a_at) / RFU MAPK11 (11762145_a_at) / Fold change /veh MAPK11 (11762145_a_at) / RFU FIZ1 (11724087_x_at) / Fold change /veh FIZ1 (11724087_x_at) / RFU OASL (11726364_x_at) / Fold change /veh OASL (11726364_x_at) / RFU SOX15 (11748057_x_at) / Fold change /veh SOX15 (11748057_x_at) / RFU CD79A (11719716_a_at) / Fold change /veh CD79A (11719716_a_at) / RFU HIST1H1D (11736915_at) / Fold change /veh HIST1H1D (11736915_at) / RFU CASKIN2 (11723855_a_at) / Fold change /veh CASKIN2 (11723855_a_at) / RFU LOC730098 (11760151_x_at) / Fold change /veh LOC730098 (11760151_x_at) / RFU OR4N2 (11742367_at) / Fold change /veh OR4N2 (11742367_at) / RFU PRRT2 (11749266_a_at) / Fold change /veh PRRT2 (11749266_a_at) / RFU SNX32 (11753110_a_at) / Fold change /veh SNX32 (11753110_a_at) / RFU CDHR5 (11726645_a_at) / Fold change /veh CDHR5 (11726645_a_at) / RFU RCAN1 (11760418_a_at) / Fold change /veh RCAN1 (11760418_a_at) / RFU FAM167A (11723789_a_at) / Fold change /veh FAM167A (11723789_a_at) / RFU FAM26E (11764081_at) / Fold change /veh FAM26E (11764081_at) / RFU ISYNA1 (11749810_s_at) / Fold change /veh ISYNA1 (11749810_s_at) / RFU ACY1 (11761880_at) / Fold change /veh ACY1 (11761880_at) / RFU 11764098_at / Fold change /veh 11764098_at / RFU SAMD14 (11745864_x_at) / Fold change /veh SAMD14 (11745864_x_at) / RFU NPB (11741838_a_at) / Fold change /veh NPB (11741838_a_at) / RFU TMPRSS6 (11731388_a_at) / Fold change /veh TMPRSS6 (11731388_a_at) / RFU KRTAP10-2 (11738614_at) / Fold change /veh KRTAP10-2 (11738614_at) / RFU ARHGAP8 /// PRR5-ARHGAP8 (11727945_x_at) / Fold change /veh ARHGAP8 /// PRR5-ARHGAP8 (11727945_x_at) / RFU KRTAP5-7 /// NADSYN1 (11734609_at) / Fold change /veh KRTAP5-7 /// NADSYN1 (11734609_at) / RFU RASL12 (11751679_a_at) / Fold change /veh RASL12 (11751679_a_at) / RFU CDKN2B (11736163_a_at) / Fold change /veh CDKN2B (11736163_a_at) / RFU PRF1 (11729649_at) / Fold change /veh PRF1 (11729649_at) / RFU, ZNF638 /// ZNF638-IT1 / Fold change vs veh, ZNF638 /// ZNF638-IT1 / RFU, PANK3 / Fold change vs veh, PANK3 / RFU, SH3YL1 / Fold change vs veh, SH3YL1 / RFU, ZEB2 / Fold change vs veh, ZEB2 / RFU, NRIP1 / Fold change vs veh, NRIP1 / RFU, PTTG1IP / Fold change vs veh, PTTG1IP / RFU, CAPN2 / Fold change vs veh, CAPN2 / RFU, MED14 / Fold change vs veh, MED14 / RFU, SNORA58 / Fold change vs veh, SNORA58 / RFU, C1orf63 / Fold change vs veh, C1orf63 / RFU, LRRFIP1 / Fold change vs veh, LRRFIP1 / RFU, NDUFAF7 / Fold change vs veh, NDUFAF7 / RFU, SLC12A2 / Fold change vs veh, SLC12A2 / RFU, IBTK / Fold change vs veh, IBTK / RFU, ESF1 / Fold change vs veh, ESF1 / Fold change vs veh, TMEM50B / RFU, TAOK1 / Fold change vs veh, TAOK1 / RFU, ACBD3 / Fold change vs veh, ACBD3 / RFU, TMA16 / Fold change vs veh, TMA16 / RFU, RWDD3 / Fold change vs veh, RWDD3 / RFU, BCAT1 / Fold change vs veh, BCAT1 / RFU, EDEM3 / Fold change vs veh, EDEM3 / RFU, TMEM33 / Fold change vs veh, TMEM33 / RFU, WDR75 / Fold change vs veh, WDR75 / RFU, AHCTF1 / Fold change vs veh, AHCTF1 / RFU, TFRC / Fold change vs veh, TFRC / RFU, ZDHHC17 / Fold change vs veh, ZDHHC17 / RFU, NOM1 / Fold change vs veh, NOM1 / RFU, ARL8B / Fold change vs veh, ARL8B / RFU, ZBTB11 / Fold change vs veh, ZBTB11 / RFU, TAMM41 / Fold change vs veh, TAMM41 / RFU, KIAA1704 /// LOC100996395 / Fold change vs veh, KIAA1704 /// LOC100996395 / RFU, ING1 / Fold change vs veh, ING1 / RFU, TRMT61B / Fold change vs veh, TRMT61B / RFU, FUBP3 / Fold change vs veh, FUBP3 / RFU, TP53 / Fold change vs veh, TP53 / RFU, TNKS2 / Fold change vs veh, TNKS2 / RFU, ZFP14 / Fold change vs veh, ZFP14 / RFU, ACTR2 / Fold change vs veh, ACTR2 / RFU, PPP3R1 / Fold change vs veh, PPP3R1 / RFU, PIK3R1 / Fold change vs veh, PIK3R1 / RFU, HNRNPA1 / Fold change vs veh, HNRNPA1 / RFU, RNF170 / Fold change vs veh, RNF170 / RFU, ZNF28 / Fold change vs veh, ZNF28 / RFU, RNGTT / Fold change vs veh, RNGTT / RFU, OGT / Fold change vs veh, OGT / RFU, BRD1 / Fold change vs veh, BRD1 / RFU, MARS / Fold change vs veh, MARS / RFU, ZNF655 / Fold change vs veh, ZNF655 / RFU, FAHD1 / Fold change vs veh, FAHD1 / RFU, BDP1 / Fold change vs veh, BDP1 / RFU, LRRCC1 / Fold change vs veh, LRRCC1 / RFU, ARID1A / Fold change vs veh, ARID1A / RFU, ZNF146 / Fold change vs veh, ZNF146 / RFU, ZNF330 / Fold change vs veh, ZNF330 / RFU, GPN3 / Fold change vs veh, GPN3 / RFU, C9orf123 / Fold change vs veh, C9orf123 / RFU, N4BP2L2 / Fold change vs veh, N4BP2L2 / RFU, ARFIP1 / Fold change vs veh, ARFIP1 / RFU, FAM179B / Fold change vs veh, FAM179B / RFU, BCL10 / Fold change vs veh, BCL10 / RFU, UHRF1BP1L / Fold change vs veh, UHRF1BP1L / RFU, BET1 / Fold change vs veh, BET1 / RFU, CNOT2 / Fold change vs veh, CNOT2 / RFU, ZNF268 / Fold change vs veh, ZNF268 / Fold change vs veh, ZNF507 / RFU, DGCR2 / Fold change vs veh, DGCR2 / RFU, WDSUB1 / Fold change vs veh, WDSUB1 / Fold change vs veh, HSP90B1 /// MIR3652 / RFU, ADSS / Fold change vs veh, ADSS / RFU, GK / Fold change vs veh, GK / RFU, ZNF148 / Fold change vs veh, ZNF148 / RFU, TAF9 / Fold change vs veh, TAF9 / RFU, SLC1A5 / Fold change vs veh, SLC1A5 / RFU, SLMO2 / Fold change vs veh, SLMO2 / RFU, ABCC4 / Fold change vs veh, ABCC4 / RFU, LOC101060439 /// RAP1B / Fold change vs veh, LOC101060439 /// RAP1B / RFU, RFX7 / Fold change vs veh, RFX7 / RFU, GTPBP10 / Fold change vs veh, GTPBP10 / RFU, CNEP1R1 / Fold change vs veh, CNEP1R1 / RFU, BIVM-ERCC5 /// ERCC5 / Fold change vs veh, BIVM-ERCC5 /// ERCC5 / RFU, ILF3 / Fold change vs veh, ILF3 / RFU 11762660_at / Fold change /veh 11762660_at / RFU VCAN (11757783_s_at) / Fold change /veh VCAN (11757783_s_at) / RFU DDX43 (11728927_at) / Fold change /veh DDX43 (11728927_at) / RFU KRT8 (11758188_x_at) / Fold change /veh KRT8 (11758188_x_at) / RFU NKD1 (11759106_at) / Fold change /veh NKD1 (11759106_at) / RFU SRD5A1 (11742802_a_at) / Fold change /veh SRD5A1 (11742802_a_at) / RFU TPSAB1 /// TPSB2 (11721975_s_at) / Fold change /veh TPSAB1 /// TPSB2 (11721975_s_at) / RFU GSTM3 (11746129_a_at) / Fold change /veh GSTM3 (11746129_a_at) / RFU IL23R (11737362_x_at) / Fold change /veh IL23R (11737362_x_at) / RFU TMEM51 (11727254_a_at) / Fold change /veh TMEM51 (11727254_a_at) / RFU PIWIL2 (11732686_x_at) / Fold change /veh PIWIL2 (11732686_x_at) / RFU ORM1 (11744905_x_at) / Fold change /veh ORM1 (11744905_x_at) / RFU CCDC152 (11743942_at) / Fold change /veh CCDC152 (11743942_at) / RFU ECM1 (11717891_a_at) / Fold change /veh ECM1 (11717891_a_at) / RFU IL23R (11748794_a_at) / Fold change /veh IL23R (11748794_a_at) / RFU TNFAIP8L3 (11732012_x_at) / Fold change /veh TNFAIP8L3 (11732012_x_at) / RFU MBOAT4 (11741988_at) / Fold change /veh MBOAT4 (11741988_at) / RFU 11764193_at / Fold change /veh 11764193_at / RFU TMEM53 (11763286_at) / Fold change /veh TMEM53 (11763286_at) / RFU MAGEB2 (11727129_at) / Fold change /veh MAGEB2 (11727129_at) / RFU TMEM200A (11744735_a_at) / Fold change /veh TMEM200A (11744735_a_at) / RFU CCDC152 (11751479_a_at) / Fold change /veh CCDC152 (11751479_a_at) / RFU FAM211A (11726209_a_at) / Fold change /veh FAM211A (11726209_a_at) / RFU RGS16 (11746705_a_at) / Fold change /veh RGS16 (11746705_a_at) / RFU VCAN (11755009_s_at) / Fold change /veh VCAN (11755009_s_at) / RFU RHOB (11743442_s_at) / Fold change /veh RHOB (11743442_s_at) / RFU RGS16 (11720943_a_at) / Fold change /veh RGS16 (11720943_a_at) / RFU RGS16 (11720944_at) / Fold change /veh RGS16 (11720944_at) / RFU, VPS4B / Fold change vs veh, VPS4B / RFU, CREB1 / Fold change vs veh, CREB1 / RFU, DNAJC13 / Fold change vs veh, DNAJC13 / RFU, GNAQ / Fold change vs veh, GNAQ / RFU, CDK5R1 / Fold change vs veh, CDK5R1 / RFU, ZRANB3 / Fold change vs veh, ZRANB3 / RFU, CUL4A / Fold change vs veh, CUL4A / RFU, CCNY / Fold change vs veh, CCNY / RFU, UFL1 / Fold change vs veh, UFL1 / RFU, COG3 / Fold change vs veh, COG3 / RFU, DIAPH2 / Fold change vs veh, DIAPH2 / RFU, SKA2 / Fold change vs veh, SKA2 / RFU, AFF3 / Fold change vs veh, AFF3 / RFU, LMF1 / Fold change vs veh, LMF1 / RFU, IPO11 / Fold change vs veh, IPO11 / RFU, DFFB / Fold change vs veh, DFFB / RFU, FOXP1 / Fold change vs veh, FOXP1 / RFU, CARD8 / Fold change vs veh, CARD8 / RFU, STRN3 / Fold change vs veh, STRN3 / RFU, ADK / Fold change vs veh, ADK / RFU, RASSF2 / Fold change vs veh, RASSF2 / RFU, WIPF1 / Fold change vs veh, WIPF1 / RFU, LARP1B / Fold change vs veh, LARP1B / RFU, RASA1 / Fold change vs veh, RASA1 / RFU, RB1 / Fold change vs veh, RB1 / RFU, PPFIA1 / Fold change vs veh, PPFIA1 / RFU, MAT2A / Fold change vs veh, MAT2A / RFU, CCT5 / Fold change vs veh, CCT5 / RFU, WDR92 / Fold change vs veh, WDR92 / RFU, CUX1 / Fold change vs veh, CUX1 / RFU, TTC7A / Fold change vs veh, TTC7A / RFU, TMEM135 / Fold change vs veh, TMEM135 / RFU, DEPTOR / Fold change vs veh, DEPTOR / RFU, CPM / Fold change vs veh, CPM / RFU, DNAJB6 / Fold change vs veh, DNAJB6 / RFU, CACNA2D3 / Fold change vs veh, CACNA2D3 / RFU, DTX4 / Fold change vs veh, DTX4 / RFU, TFCP2 / Fold change vs veh, TFCP2 / RFU, GMCL1 /// GMCL1P1 / Fold change vs veh, GMCL1 /// GMCL1P1 / RFU, AEBP2 / Fold change vs veh, AEBP2 / RFU, SNHG1 /// SNORD22 /// SNORD25 /// SNORD26 /// SNORD27 /// SNORD28 /// SNORD29 /// SNORD31 / Fold change vs veh, SNHG1 /// SNORD22 /// SNORD25 /// SNORD26 /// SNORD27 /// SNORD28 /// SNORD29 /// SNORD31 / Fold change (Aza/veh), C12orf56 (ProbeSet 11735607_a_at) / Fold change (ACY-1035/veh), C12orf56 (ProbeSet 11735607_a_at) / Fold change (Aza/veh), FGFR1OP (ProbeSet 11751329_s_at) / Fold change (ACY-1035/veh), FGFR1OP (ProbeSet 11751329_s_at) / Fold change (Aza/veh), VPS36 (ProbeSet 11739960_a_at) / Fold change (ACY-1035/veh), VPS36 (ProbeSet 11739960_a_at) / RFU SYPL1 (11715823_x_at) / Fold change /veh SYPL1 (11715823_x_at) / RFU IGFBP7 (11715501_s_at) / Fold change /veh IGFBP7 (11715501_s_at) / RFU REEP3 (11722064_at) / Fold change /veh REEP3 (11722064_at) / RFU IGLL1 (11728026_x_at) / Fold change /veh IGLL1 (11728026_x_at): dose or concentration left out as unconfirmed", "conditions": "ProbeSet 11721521_at; LIST B"}
{"smiles": "Nc1ncn([C@@H]2O[C@H](CO)[C@@H](O)[C@H]2O)c(=O)n1", "note": "[azacitidine]", "values": [{"measurement": "Fold change vs veh, ZDHHC17", "value": 0.88}]}
